Laboratory results from article PMC9653995, “New Positive TRPC6 Modulator Penetrates Blood–Brain Barrier, Eliminates Synaptic Deficiency and Restores Memory Deficit in 5xFAD Mice” (International Journal of Molecular Sciences, 2022).

How the values were obtained:
[1] = test system: TRPC3; details: cited from earlier work
[2] = test system: Aβ42-treated hippocampal neurons; assay: In vitro amyloid synaptotoxicity model: mushroom spine percentage in primary hippocampal neuronal cultures; assay type: cell-based, mouse; details: 24 h, mean ± SEM
Description: The average percentages of mushroom spines (MS%) in each experimental condition are presented as mean ± SEM (n = 20–30 neurons for each group from three batches of cultures). We observed that 24-h incubation in the presence of 1 µM and 100 nM of C20 rescues mushroom spine loss in Aβ42-treated hippocampal neurons. C20 lost its activity at a 10 nM concentration (Figure 2B, mushroom spine percentage (MS%) in the Control, 29.07 ± 1.15%; Control + C20 [1 µM], 31.32 ± 1.46%; Control + C20 [100 nM], 30.11 ± 0.86%; Control + C20 [10 nM]; […]; Aβ42, 19.82 ± 1.13%; Aβ42 + C20 [1 µM], 29.00 ± 1.94%; Aβ42 + C20 [100 nM], 27.28 ± 1.81%; Aβ42 + C20 [10 nM], 18.64 ± 1.63%; two-way ANOVA following Tukey’s multiple comparisons test, P values are indicated in the Figure).
Primary hippocampal neuronal cultures were prepared as previously described. Briefly, hippocampuses from postnatal day 0–2 FVB/NJ mice were removed and cut into small pieces in ice-cold buffer (1% 10x CMF-HBSS (Gibco, Grand Island, NY, USA; #14185), 1% Pen Strep (Gibco, #15140), 16 MM HEPES (Sigma, St Louis, MO, USA; #H3375), 10 MM NaHCO3 (Sigma, #S5761); pH = 7.2). Cell tissue was dissociated by trituration with 5 mg/mL DNase I solution (Sigma, #DN-25) after papain (Worthington, Columbus, OH, USA; #LK003176) digestion for 30 min at 37 °C. Hippocampal neurons were plated onto poly-D-lysine (Sigma, #P0899) coated 12 mm glass coverslips (Thermo Scientific, Braunschweig, Germany; #CB00120RA1) in 24-well dishes. in Neurobasal/B-27 with the addition of insulin-transferrin-sodium selenite (Sigma-Aldrich). Cells were grown in 1 mL of Neurobasal medium (Gibco, #10888) supplemented with 1% FBS (Gibco, #10500), 2% 50xB27 (Gibco, #17504), 0.05 MM L- Glutamine (Gibco, #250030). The cultures were maintained at 37 °C in a 5% CO2 incubator. Half of the medium was replaced with a new culture medium at DIV 7 and DIV 14. At DIV 14, neurons were fixed for 10 min with 4% paraformaldehyde sucrose in PBS at room temperature.
Neurons were transfected using the calcium phosphate method at DIV 7 as previously described with alterations that were described earlier. The transfection kit was obtained from Clontech (TAKARA Biotechnology, Mountain View, CA, USA; #631312).
Aβ42 peptides were purchased from AnaSpec (Anaspec, Freemont, CA, USA; #AS-20276). Stock solution [1 mg/mL] was prepared as described earlier and stored at −20 °C. Working Aβ42 solution was made immediately prior to treatment of the cells by diluting the stock concentration to 6.6 µM final Aβ peptide concentrations in Neurobasal. The working solution was incubated at +4 °C for 24 h to obtain the oligomeric conditions as described. […]

## COc1cc2c(cc1OC)C(c1cc3ccccc3oc1=O)=NC(C)(C)C2 [C20, 3-(3-,4-Dihydro-6,7-dimethoxy-3,3-dimethyl-1-isoquinolinyl)-2H-1-benzopyran-2-one]
[1]
  activation of TRPC3: does not activate TRPC3
[2]; Aβ42-treated cultures + 10 nM, Aβ42 alone 19.82 ± 1.13%
  mushroom spine percentage (MS%): 18.64 ± 1.63%
[2]; Aβ42-treated cultures + 100 nM, Aβ42 alone 19.82 ± 1.13%
  mushroom spine percentage (MS%): 27.28 ± 1.81%
[2]; Aβ42-treated cultures + 1 µM, Aβ42 alone 19.82 ± 1.13%
  mushroom spine percentage (MS%): 29.00 ± 1.94%
[2]; Control cultures + 100 nM, Control 29.07 ± 1.15%
  mushroom spine percentage (MS%): 30.11 ± 0.86%
